{
  "source": "ChEMBL document CHEMBL5608211",
  "about": "“Antibody-drug conjugates for targeted cancer therapy: Recent advances in potential payloads” (Eur J Med Chem, 2024)",
  "key": {"[1]": {"tested_on": "KARPAS-299", "test": "Cytotoxicity against human KARPAS-299 cells incubated for 96 hrs by Alamar blue assay", "assay_type": "functional, cell-based", "conditions": "KARPAS-299, 96 h"}, "[2]": {"target": "Tubulin", "test": "Displacement of fluorescent Maytansine probe from tubulin (unknown origin) assessed as dissociation constant by competitive binding based fluorescence anisotropy", "assay_type": "protein-complex assay, Homo sapiens"}, "[3]": {"tested_on": "A2780", "test": "Cytotoxicity against human A2780 cells assessed as inhibition of cell growth incubated for 72 hrs by MTT assay", "assay_type": "functional, cell-based", "conditions": "A2780, 72 h"}, "[4]": {"test": "Inhibition of RNA polymerase II phosphorylation in human HeLa cells by Western blot analysis", "assay_type": "cell-based"}, "[5]": {"tested_on": "BT-474", "test": "Antiproliferative activity against human BT-474 cells assessed as inhibition of cell growth incubated for 4 days by WST-8 assay", "assay_type": "functional, cell-based", "conditions": "BT-474, 96 h"}, "[6]": {"test": "Apparent permeability across basolateral to apical side in human Caco-2 cells incubated for 2 hrs by HPLC-MS analysis", "assay_type": "ADME, cell-based"}, "[7]": {"tested_on": "HT-29", "test": "Antiproliferative activity against human HT-29 cells assessed as inhibition of cell growth incubated for 48 to 96 hrs by MTT assay", "assay_type": "functional, cell-based"}, "[8]": {"tested_on": "A2058", "test": "Cytotoxicity against human A2058 cells assessed as inhibition of cell growth incubated for 96 hrs by CellTiter-Glo luminescent assay", "assay_type": "functional, cell-based", "conditions": "A2058, 96 h"}, "[9]": {"tested_on": "MOLM-13", "test": "Growth inhibition of human MOLM-13 cells incubated for 5 days by PrestoBlue reagent assay", "assay_type": "functional", "conditions": "MOLM-13, 120 h, time 5 day"}, "[10]": {"tested_on": "KB 3-1", "test": "Cytotoxicity against human KB 3-1 cells assessed as inhibition of cell growth incubated for 3 days by SRB assay", "assay_type": "functional, cell-based", "conditions": "KB 3-1, 72 h"}, "[11]": {"tested_on": "HT-29", "test": "Antiproliferative activity against human HT-29 cells assessed as inhibition of cell growth incubated for 96 hrs by SRB assay", "assay_type": "functional, cell-based", "conditions": "HT-29, 96 h"}, "[12]": {"tested_on": "HCT-116", "test": "Cytotoxicity against human HCT-116 cells incubated for 96 hrs by resazurin dye based fluorescence spectrometric assay", "assay_type": "functional, cell-based", "conditions": "HCT-116, 96 h"}, "[13]": {"test": "Cytotoxicity against human L540cy cells assessed as reduction in cell growth incubated for 4 days by CellTiter-Glo luminescent assay", "assay_type": "functional, cell-based", "conditions": "96 h"}, "[14]": {"tested_on": "A2780", "test": "Cytotoxicity against human A2780 cells", "assay_type": "functional, cell-based"}, "[15]": {"tested_on": "HT-29", "test": "Antiproliferative activity against human HT-29 cells incubated for 48 to 96 hrs by MTT assay", "assay_type": "functional, cell-based"}, "[16]": {"tested_on": "786-0", "test": "Antiproliferative activity against human 786-0 cells incubated for 48 to 96 hrs by MTT assay", "assay_type": "functional, cell-based"}, "[17]": {"tested_on": "H3396", "test": "Cytotoxicity against human H3396 cells incubated for 96 hrs by resazurin dye based fluorescence spectrometric assay", "assay_type": "functional, cell-based", "conditions": "H3396, 96 h"}, "[18]": {"tested_on": "H3396", "test": "Cytotoxicity against human H3396 cells assessed as inhibition of cell growth incubated for 96 hrs by Alamar blue assay", "assay_type": "functional, cell-based", "conditions": "H3396, 96 h"}},
  "note": "Starred links: 1 amine or outer side, 2 acyl side, 3 side chain; linkers in the order of their positions; H or OH if unused. Non-standard residues stand in square brackets, D forms with d. Residues, ends and D or L forms follow the SMILES beside them. *: point of attachment. Dolaproine = CO[C@@H]([C@@H]1CCCN1)[C@@H](C)C(=O)O; X10 = CC(C)[C@@H](C(=O)[*:2])N(C)CCCCN(C)[*:1]; X1 = O=C([C@]1(N[*:1])C[C@@H]1c1ccccc1)[*:2]; Dil = CC[C@H](C)[C@H](NC)[C@@H](CC(=O)O)OC; X9 = c1ccc(C[C@H](N*)c2nn[nH]n2)cc1; X8 = CCOP(=O)(O)[C@H](Cc1ccccc1)N*; X6 = C[C@@H](N*)[C@@H](O)c1ccccc1; NMeV = CN[C@H](C(=O)O)C(C)C; X2 = c1ccc2c(c1)CON(*)C2; Boc = CC(C)(C)OC(=O)*",
  "data": [
    {"smiles": "CC[C@H](C)[C@@H]([C@@H](CC(=O)N1CCC[C@H]1[C@H](OC)[C@@H](C)C(=O)N[C@H](Cc1ccccc1)C(=O)OC)OC)N(C)C(=O)[C@@H](NC(=O)c1ccc(N)cc1)C(C)C", "values": [
      {"measurement": "IC50", "setting": "[1]", "result": 120, "unit": "pM"}
    ]},
    {"smiles": "COc1cc2cc(c1Cl)N(C)C(=O)C[C@H](OC(C)=O)[C@@]1(C)O[C@H]1[C@H](C)[C@@H]1C[C@@](O)(NC(=O)O1)[C@H](OC)/C=C/C=C(\\C)C2", "values": [
      {"measurement": "Kd", "setting": "[2]", "result": 11000, "unit": "pM"},
      {"measurement": "IC50", "setting": "[3]", "result": 250, "unit": "pM"}
    ]},
    {"smiles": "CC[C@H](C)[C@@H]1NC(=O)CNC(=O)[C@H]2CC(=O)[C@H]([C@@H](C)[C@@H](O)CO)NC(=O)[C@@H]3C[C@@H](C#N)CN3C(=O)[C@H](CC(N)=O)NC(=O)[C@H](CSc3[nH]c4cc(O)ccc4c3C2)NC(=O)CNC1=O", "values": [
      {"measurement": "IC50", "setting": "[4]", "result": 480000, "unit": "pM"}
    ]},
    {"smiles": "CC[C@H](C)[C@@H]([C@@H](CC(=O)N1C[C@@H](N)C[C@H]1[C@H](OC)[C@@H](C)C(=O)NCCc1c(F)cccc1F)OC)N(C)C(=O)[C@@H](NC(=O)[C@H](C(C)C)N(C)C)C(C)C", "values": [
      {"measurement": "IC50", "setting": "[5]", "result": "< 400", "unit": "pM"}
    ]},
    {"smiles": "CC[C@H](C)[C@@H]([C@@H](CC(=O)N1CCC[C@H]1[C@H](OC)[C@@H](C)C(=O)N[C@H](Cc1ccccc1)c1nnc(-c2ccccc2)o1)OC)N(C)C(=O)[C@@H](NC(=O)[C@H](C(C)C)N(C)CCCC(=O)O)C(C)C", "values": [
      {"measurement": "Papp B→A at 2 h", "setting": "[6]", "result": 4.5, "unit": "×10⁻⁶ cm/s"},
      {"measurement": "IC50", "setting": "[7]", "result": 100, "unit": "pM"}
    ]},
    {"smiles": "CC[C@H](C)[C@@H]([C@@H](CC(=O)N1CCC[C@H]1[C@H](OC)[C@@H](C)C(=O)N[C@@H](Cc1ccccc1)C(=O)O)OC)N(C)C(=O)[C@@H](NC(=O)[C@H](C(C)C)N(C)CCCCN(C)C(=O)OC(C)(C)C)C(C)C", "note": "(Boc-[X10]V[Dil][Dolaproine]F-OH)", "values": [
      {"measurement": "IC50", "setting": "[8]", "result": 1000, "unit": "pM"}
    ]},
    {"smiles": "CC[C@H](C)[C@@H]([C@@H](CC(=O)N1C[C@@H](NC)C[C@H]1[C@H](OC)[C@@H](C)C(=O)NCCc1c(F)cccc1F)OC)N(C)C(=O)[C@@H](NC(=O)[C@H](C(C)C)N(C)C)C(C)C", "values": [
      {"measurement": "IC50", "setting": "[5]", "result": "< 400", "unit": "pM"}
    ]},
    {"smiles": "CC[C@H](C)[C@@H]([C@@H](CC(=O)N1C[C@@H](N)C[C@H]1[C@H](OC)[C@@H](C)C(=O)N[C@@H](Cc1ccccc1)C(=O)OC)OC)N(C)C(=O)[C@@H](NC(=O)[C@H](C(C)C)N(C)C)[C@H](C)N=[N+]=[N-]", "values": [
      {"measurement": "GI50", "setting": "[9]", "result": 57, "unit": "pM"}
    ]},
    {"smiles": "CN[C@H](C(=O)N[C@H](C(=O)N(C)[C@H](/C=C(\\C)C(=O)N1CCC[C@H]1[C@H](OC)[C@@H](C)C(=O)N[C@@H](Cc1ccccc1)c1nccs1)C(C)C)C(C)(C)C)C(C)(C)c1ccccc1", "values": [
      {"measurement": "IC50", "setting": "[10]", "result": 750, "unit": "pM"}
    ]},
    {"smiles": "CC[C@H](C)[C@@H]([C@@H](CC(=O)N1CCC[C@H]1[C@H](OC)[C@@H](C)C(=O)N[C@@H](Cc1ccccc1)c1nccs1)OC)N(C)C(=O)[C@@H](NC(=O)[C@H](C(C)C)N(C)C)C(C)C", "note": "[DOLASTATIN-10]", "values": [
      {"measurement": "IC50", "setting": "[11]", "result": 18, "unit": "pM"}
    ]},
    {"smiles": "CCOP(=O)(O)[C@H](Cc1ccccc1)NC(=O)[C@H](C)[C@@H](OC)[C@@H]1CCCN1C(=O)C[C@@H](OC)[C@H]([C@@H](C)CC)N(C)C(=O)[C@@H](NC(=O)[C@@H](NC)C(C)C)C(C)C", "note": "(H-[NMeV]V[Dil][Dolaproine]-X8)", "values": [
      {"measurement": "IC50", "setting": "[12]", "result": 90, "unit": "pM"}
    ]},
    {"smiles": "Nc1cccc(C(=O)N2CCC(CCCCNC(=O)/C=C/c3cccnc3)CC2)c1", "values": [
      {"measurement": "EC50", "setting": "[13]", "result": 6300, "unit": "pM"}
    ]},
    {"smiles": "CC(=O)N[C@@H](C)c1ccc(NC(=O)[C@H]2C[C@@H]2c2cccnc2)cc1", "values": [
      {"measurement": "IC50", "setting": "[14]", "result": 5000, "unit": "pM"}
    ]},
    {"smiles": "CC[C@H](C)[C@@H]([C@@H](CC(=O)N1CCC[C@H]1[C@H](OC)[C@@H](C)C(=O)N[C@@]1(C(=O)N2Cc3ccccc3CO2)C[C@@H]1c1ccccc1)OC)N(C)C(=O)[C@@H](NC(=O)[C@@H](NC)C(C)C)C(C)C", "note": "(H-[NMeV]V[Dil][Dolaproine][X1]-X2)", "values": [
      {"measurement": "IC50", "setting": "[15]", "result": 500, "unit": "pM"},
      {"measurement": "IC50", "setting": "[16]", "result": 500, "unit": "pM"}
    ]},
    {"smiles": "C#CCCCCC(=O)O[C@H]1CC(=O)N(C)c2cc(cc(OC)c2Cl)C/C(C)=C/C=C/[C@@H](OC)[C@@]2(O)C[C@H](OC(=O)N2)[C@@H](C)[C@@H]2O[C@]12C", "values": [
      {"measurement": "Kd", "setting": "[2]", "result": 20000, "unit": "pM"},
      {"measurement": "IC50", "setting": "[3]", "result": 33, "unit": "pM"}
    ]},
    {"smiles": "CC[C@H](C)[C@@H]([C@@H](CC(=O)N1CCC[C@H]1[C@H](OC)[C@@H](C)C(=O)N[C@@H](Cc1ccccc1)c1nn[nH]n1)OC)N(C)C(=O)[C@@H](NC(=O)[C@@H](NC)C(C)C)C(C)C", "note": "(H-[NMeV]V[Dil][Dolaproine]-X9)", "values": [
      {"measurement": "IC50", "setting": "[17]", "result": 6000, "unit": "pM"}
    ]},
    {"smiles": "CC[C@H](C)[C@@H]([C@@H](CC(=O)N1CCC[C@H]1[C@H](OC)[C@@H](C)C(=O)N[C@H](C)[C@@H](O)c1ccccc1)OC)N(C)C(=O)[C@@H](NC(=O)[C@@H](NC)C(C)C)C(C)C", "note": "(H-[NMeV]V[Dil][Dolaproine]-X6)", "values": [
      {"measurement": "IC50", "setting": "[18]", "result": 100, "unit": "pM"}
    ]}
  ]
}
